Reference: US6914045B2, “Glycopeptide antibiotics” (Wyeth Holdings Corporation, priority 2001, dated 2005)
≈ marks a conversion by molar mass, not a printed value.

Columns and labels:
Test in all cases: in vitro antibacterial evaluation, MIC by broth dilution
Type in all cases: cell-based
Streptococcus sp. = conditions: broth dilution, 18 hours at 35° C.
How it was run: (§1)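 MIC, the lowest antibiotic concentration preventing growth, was read across 64-0.06 μg/mL with 5×10^5 CFU/mL inoculum. Method followed NCCLS M7-A2 broth dilution using Mueller-Hinton II; Gram-positive strains covered recent methicillin-, penicillin- and/or vancomycin-resistant clinical isolates.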

Enterococcus sp. = conditions: broth dilution, 18 hours at 35° C.
How it was run: as §1

Staphylococcus sp. = conditions: broth dilution, 18 hours at 35° C.
How it was run: as §1

Escherichia coli = conditions: 18 hours at 35° C.
How it was run: as §1

- MIC Streptococcus agalactiae (GC 4564) (Streptococcus sp.; Streptococcus agalactiae (GC 4564)): 0.5 µg/mL (≈ 0.36 µM)
- MIC Streptococcus pneumoniae (ATCC 6301) (Streptococcus sp.; Streptococcus pneumoniae (ATCC 6301)): 0.25 µg/mL (≈ 0.18 µM)
- MIC Streptococcus pneumoniae (GC 1894) (Streptococcus sp.; Streptococcus pneumoniae (GC 1894)): 0.12 µg/mL (≈ 0.0864 µM)
- MIC Streptococcus pneumoniae (GC 4565) (Streptococcus sp.; Streptococcus pneumoniae (GC 4565)): 0.25 µg/mL (≈ 0.18 µM)
- MIC Streptococcus pyogenes (GC 4563) (Streptococcus sp.; Streptococcus pyogenes (GC 4563)): 0.5 µg/mL (≈ 0.36 µM)
- MIC Streptococcus pneumoniae (ATCC 6301) (Streptococcus sp.; strain ATCC 6301): 0.25 µg/mL (≈ 0.18 µM)
- MIC Streptococcus pneumoniae (GC 1894) (Streptococcus sp.; strain GC 1894): 0.12 µg/mL (≈ 0.0864 µM)
- MIC Streptococcus pyogenes (GC 4563) (Streptococcus sp.; strain GC 4563): 0.5 µg/mL (≈ 0.36 µM)
- MIC Streptococcus agalactiae (GC 4564) (Streptococcus sp.; strain GC 4564): 0.5 µg/mL (≈ 0.36 µM)
- MIC Streptococcus pneumoniae (GC 4565) (Streptococcus sp.; strain GC 4565): 0.25 µg/mL (≈ 0.18 µM)
- MIC Enterococcus avium (GC 4558) (Enterococcus sp.; Enterococcus avium (GC 4558)): 16 µg/mL (≈ 11.5 µM)
- MIC Enterococcus faecalis (ATCC 29212) (Enterococcus sp.; Enterococcus faecalis (ATCC 29212)): 8 µg/mL (≈ 5.76 µM)
- MIC Enterococcus faecalis (GC 2242) (Enterococcus sp.; Enterococcus faecalis (GC 2242)): 8 µg/mL (≈ 5.76 µM)
- MIC Enterococcus faecalis (GC 2691) (Enterococcus sp.; Enterococcus faecalis (GC 2691)): 8 µg/mL (≈ 5.76 µM)
- MIC Enterococcus faecalis (GC 3059) (Enterococcus sp.; Enterococcus faecalis (GC 3059)): 16 µg/mL (≈ 11.5 µM)
- MIC Enterococcus faecalis (GC 4552) (Enterococcus sp.; Enterococcus faecalis (GC 4552)): 8 µg/mL (≈ 5.76 µM)
- MIC Enterococcus faecalis (GC 4553) (Enterococcus sp.; Enterococcus faecalis (GC 4553)): 16 µg/mL (≈ 11.5 µM)
- MIC Enterococcus faecalis (GC 4554) (Enterococcus sp.; Enterococcus faecalis (GC 4554)): 8 µg/mL (≈ 5.76 µM)
- MIC Enterococcus faecalis (GC 6189) (Enterococcus sp.; Enterococcus faecalis (GC 6189)): 8 µg/mL (≈ 5.76 µM)
- MIC Enterococcus faecium (GC 2243) (Enterococcus sp.; Enterococcus faecium (GC 2243)): 8 µg/mL (≈ 5.76 µM)
- MIC Enterococcus faecium (GC 4556) (Enterococcus sp.; Enterococcus faecium (GC 4556)): 8 µg/mL (≈ 5.76 µM)
- MIC Enterococcus faecium (GC 4557) (Enterococcus sp.; Enterococcus faecium (GC 4557)): 4 µg/mL (≈ 2.88 µM)
- MIC Enterococcus faecalis (ATCC 29212) (Enterococcus sp.; strain ATCC 29212): 8 µg/mL (≈ 5.76 µM)
- MIC Enterococcus faecalis (GC 2242) (Enterococcus sp.; strain GC 2242): 8 µg/mL (≈ 5.76 µM)
- MIC Enterococcus faecium (GC 2243) (Enterococcus sp.; strain GC 2243): 8 µg/mL (≈ 5.76 µM)
- MIC Enterococcus faecalis (GC 2691) (Enterococcus sp.; strain GC 2691): 8 µg/mL (≈ 5.76 µM)
- MIC Enterococcus faecalis (GC 3059) (Enterococcus sp.; strain GC 3059): 16 µg/mL (≈ 11.5 µM)
- MIC Enterococcus faecalis (GC 4552) (Enterococcus sp.; strain GC 4552): 8 µg/mL (≈ 5.76 µM)
- MIC Enterococcus faecalis (GC 4553) (Enterococcus sp.; strain GC 4553): 16 µg/mL (≈ 11.5 µM)
- MIC Enterococcus faecalis (GC 4554) (Enterococcus sp.; strain GC 4554): 8 µg/mL (≈ 5.76 µM)
- MIC Enterococcus faecium (GC 4556) (Enterococcus sp.; strain GC 4556): 8 µg/mL (≈ 5.76 µM)
- MIC Enterococcus faecium (GC 4557) (Enterococcus sp.; strain GC 4557): 4 µg/mL (≈ 2.88 µM)
- MIC Enterococcus avium (GC 4558) (Enterococcus sp.; strain GC 4558): 16 µg/mL (≈ 11.5 µM)
- MIC Enterococcus faecalis (GC 6189) (Enterococcus sp.; strain GC 6189): 8 µg/mL (≈ 5.76 µM)
- MIC Staphylococcus aureus (ATCC 29213) (Staphylococcus sp.): 4 µg/mL (≈ 2.88 µM)
- MIC Staphylococcus aureus (GC 1131) (Staphylococcus sp.): 2 µg/mL (≈ 1.44 µM)
- MIC Staphylococcus aureus (GC 3051) (Staphylococcus sp.): 2 µg/mL (≈ 1.44 µM)
- MIC Staphylococcus aureus (GC 3053) (Staphylococcus sp.): 4 µg/mL (≈ 2.88 µM)
- MIC Staphylococcus aureus (GC 4541) (Staphylococcus sp.): 2 µg/mL (≈ 1.44 µM)
- MIC Staphylococcus aureus (GC 4542) (Staphylococcus sp.): 2 µg/mL (≈ 1.44 µM)
- MIC Staphylococcus aureus (GC 4544) (Staphylococcus sp.): 4 µg/mL (≈ 2.88 µM)
- MIC Staphylococcus aureus (GC 4545) (Staphylococcus sp.): 2 µg/mL (≈ 1.44 µM)
- MIC Staphylococcus aureus (GC 1131) (Staphylococcus sp.; inoculum 5×10^5 CFU/mL, strain GC 1131): 2 µg/mL (≈ 1.44 µM)
- MIC Staphylococcus aureus (ATCC 29213) (Staphylococcus sp.; strain ATCC 29213): 4 µg/mL (≈ 2.88 µM)
- MIC Staphylococcus aureus (GC 3051) (Staphylococcus sp.; strain GC 3051): 2 µg/mL (≈ 1.44 µM)
- MIC Staphylococcus aureus (GC 3053) (Staphylococcus sp.; strain GC 3053): 4 µg/mL (≈ 2.88 µM)
- MIC Staphylococcus aureus (GC 4541) (Staphylococcus sp.; strain GC 4541): 2 µg/mL (≈ 1.44 µM)
- MIC Staphylococcus aureus (GC 4542) (Staphylococcus sp.; strain GC 4542): 2 µg/mL (≈ 1.44 µM)
- MIC Staphylococcus aureus-SMITH (GC 4543) (Staphylococcus sp.; strain GC 4543): 2 µg/mL (≈ 1.44 µM)
- MIC Staphylococcus aureus (GC 4544) (Staphylococcus sp.; strain GC 4544): 4 µg/mL (≈ 2.88 µM)
- MIC Staphylococcus aureus (GC 4545) (Staphylococcus sp.; strain GC 4545): 2 µg/mL (≈ 1.44 µM)
- MIC Coagulase Negative Staphylococcus (GC 4547) (Staphylococcus sp.; strain GC 4547): 2 µg/mL (≈ 1.44 µM)
- MIC Coagulase Negative Staphylococcus (GC 4548) (Staphylococcus sp.; strain GC 4548): 1 µg/mL (≈ 0.72 µM)
- MIC Coagulase Negative Staphylococcus (GC 4549) (Staphylococcus sp.; strain GC 4549): 1 µg/mL (≈ 0.72 µM)
- MIC Coagulase Negative Staphylococcus (GC 4551) (Staphylococcus sp.; strain GC 4551): 2 µg/mL (≈ 1.44 µM)
- MIC Coagulase Negative Staphylococcus (GC 6257) (Staphylococcus sp.; strain GC 6257): 1 µg/mL (≈ 0.72 µM)
- MIC Staphylococcus aureus-SMITH (GC 4543) (Staphylococcus sp.; strain SMITH GC 4543): 2 µg/mL (≈ 1.44 µM)
- MIC Escherichia coli (ATCC 25922) (Escherichia coli; strain ATCC 25922): >64 µg/mL
- MIC Escherichia coli (GC 4559) (Escherichia coli; strain GC 4559): 32 µg/mL (≈ 23 µM)
- MIC Escherichia coli (GC 4560) (Escherichia coli; strain GC 4560): 1 µg/mL (≈ 0.72 µM)
Structure (SMILES): CC(c1ccccc1)C1NC(=O)CNC(=O)C(CO)NC(=O)C(C(O)C2CNC(=N)N2C2OC(CO)C(O)C(O)C2O)NC(=O)C(C(O)C2CNC(=N)N2)NC(=O)C(Cc2ccc(OC3OC(CO)C(OC4OC5COC(c6cccs6)OC5C(O)C4O)C(O)C3O)cc2)NC1=O (stereo not shown) [Example 132]
- MIC Staphylococcus haemolyticus (GC 4546) (Staphylococcus sp.; strain GC 4546): 1 µg/mL (≈ 0.72 µM)
